Converted amounts (≈) assume the structure as drawn. Read-outs that look alike come from different tables or passages of the source.
Assays:
S. mansoni schistosomula = experiment: 72 hours schistosomula drug screen; assay type: cell-based, Schistosoma mansoni; conditions: for Selectivity Index Schistosomula: HepG2 CC50 over schistosomula EC50; for EC50: Schistosoma mansoni
Method: Biological Screening 72 Hours Schistosomula Drug Screen […] G. Colley, […], Schistosoma mansoni: simplified method for the production of schistosomules., Exp. Parasitol. 35 (1974) 44-51. Newly transformed schistosomula were prepared for 72 hour high throughput screening (HTS) in 384-well black-sided microtiter plates (Perkin Elmer, MA, USA) as described in M. Nur-e-alam, M. Yousaf, […]. Bari, H. A. Ghabbour, […]. Ho, A. J. […], Neoclerodane Diterpenoids from […], Teucrium […]. Nat. […] The data obtained in this manner is shown in Table 1 in the columns labelled “Phenotype”, “Motility” and “Schistosomula average”.

MTT assay on HepG2 cells = assay type: cell-based; conditions: human
Method: MTT Assay on HepG2 Cells Human Hepatocyte Carcinoma (HepG2) cells (85011430, Sigma Aldrich) were used to assess the overt toxicity of these anti-infective compounds. […] A negative control (1% v/v Triton X-100; X100, Sigma-Aldrich) was also included in each screen. After addition of compounds, each plate was then incubated for a further 20 hrs before application of MTT reagent (prepared as described in Nur-[…], Bari A, Ghabbour […], Hoffmann […] Nat Prod. 2017 Jun. 23; 80(6):1900-1908 for the assessment of compound cytotoxicity using the MTT assay. […] The plate was then further incubated for 4 hrs. After incubation, each plate was blotted dry under the laminar flow to remove the MTT treated culture media. A 100 μl DMSO: isopropanol (1:1) solution was then added to each well and the plate was then subsequently incubated for 10 minutes at 37° C. Following incubation, each plate was shaken again and then absorbance measured at 570 nm. The absorbance reading was corrected based on the average value of the wells used as blank (no cells). […] The data obtained in this manner is shown in Table 1 in the columns labelled “HepG2”. […] The selectivity indexes for schistosomula and adult worms are shown in the final two columns in Table 1.

[1] = system: F. hepatica newly excysted juveniles (NEJs); experiment: Newly excysted juveniles (NEJs) drug screen; assay type: cell-based, Fasciola hepatica; design: scale not given here; conditions: 10 μM, 72 h; higher score indicates lower worm activity
Method: Newly Excysted Juveniles (NEJs) Drug Screen
F. hepatica (Italian strain) metacercariae were obtained from Ridgeway Research, Gloucestershire, UK and stored at 4° C. Newly excysted juveniles (NEJs) from metacercariae were produced based on an optimisation introduced to the excystment method published by Dixon et al. and Wilson et al (Dixon, K. E., The physiology of excystment of the metacercaria of Fasciola hepática L. Parasitology, 1966, 56, 431-456.; Wilson, L. R., Good, R. T., Panaccio, M., Wijffels, G. L., Sandeman, R. M., Spithill, T. W, Fasciola hepatica: Characterization and Cloning of the Major Cathepsin B Protease Secreted by Newly Excysted Juvenile Liver Fluke. Experimental Parasitology 1998, 88, 85-94).
After excystment, NEJs were distributed into a 24 well tissue culture plate at a density of 25 parasites per well containing 1 mL of pre-warmed NEJs culture media. Compounds were added to respective wells and NEJ/compound co-cultures were incubated at 37° C. in an atmosphere containing 5% CO2 for 72 hours at a final concentration of 10 μM.
F. hepatica NEJs (25 per well) were incubated with the three compounds at a concentration of 10 μM (in 0.1% DMSO) and cultured for 72 hrs at 37° C. in an atmosphere containing 5% CO2. Control wells (25 NEJs per well) included those containing 0.1% DMSO (solvent) and RMPI (media) as negative controls or 10 μM Triclabendazole (0.1% DMSO, as positive control, labelled “Tbz” (Comp. 3). After 72 hrs, all NEJs were scored for phenotype and motility metrics. For each treatment, an average of both phenotype and motility score was calculated based on the individual parasite scores (across two independent replicates), wherein a higher score indicates lower worm activity. SD is reported on the bar chart.

E. coli ATCC 25922 = experiment: In vitro antibacterial activity; assay type: cell-based; conditions: Escherichia coli, ATCC25922
S. aureus ATCC 29213 = experiment: In vitro antibacterial activity; assay type: cell-based; conditions: Staphylococcus aureus, ATCC29213
[2] = system: M. smegmatis mc^2 15 ATCC 700084; experiment: In vitro antibacterial activity; assay type: cell-based, Mycobacterium smegmatis; conditions: Mycolicibacterium smegmatis, ATCC700084
MRSA USA 300 = experiment: In vitro antibacterial activity; assay type: cell-based; conditions: Staphylococcus aureus
MRSA ATCC 33591 = experiment: In vitro antibacterial activity; assay type: cell-based; conditions: Staphylococcus aureus
MRSA EM RSA = experiment: In vitro antibacterial activity; assay type: cell-based; conditions: Staphylococcus aureus
Text: (§1) In vitro Determination of Antibacterial Activity
(§2) Scientific Reports 8 (1), 2018. Bacterial strains of Enterococcus faecalis—ATCC 29212, NCTC 12201, ATCC 51299; Streptococcus pneumoniae—ATCC 49619, 18778, 21394, 21395; Haemophilus influenza—ATCC 49766, 18391, 17428; Staphylococcus aureus—NCTC 12493, ATCC BAA-077, ATCC 700698, 11051; used for testing the compounds, as previously described in “Clinical laboratory testing and in vitro diagnostics test systems—Susceptibility testing of infectious agents and evaluation of performance of antimicrobial susceptibility devices—Part 1: Reference methods for testing the in vitro activity of antimicrobial agentes against bacteria involved in infectious diseases, ISO/FDIS 20776-1:2006(E). All the procedures were carried out in a biosafety containment level 2.

[3] = system: Pseudomonas aeruginosa ATCC 27853; experiment: In vitro antibacterial activity; assay type: cell-based; conditions: Pseudomonas aeruginosa, ATCC27853
S. epidermidis NTCT11077 = experiment: In vitro antibacterial activity; assay type: cell-based; conditions: Staphylococcus epidermidis, NTCT11077
B. cereus = experiment: In vitro antibacterial activity; assay type: cell-based; conditions: Bacillus cereus; B. cereus; read-out: MIC90
[4] = system: Enterococcus faecalis ATCC 29212; experiment: Antibacterial MIC (ISO 20776-1); assay type: cell-based; conditions: Enterococcus faecalis, ATCC29212
Text: as §1, §2

[5] = system: Enterococcus faecalis ATCC 51299; experiment: Antibacterial MIC (ISO 20776-1); assay type: cell-based; conditions: ATCC51299; Enterococcus faecalis ATCC 51299, Vancomycin resistance, vanB
Text: as §1, §2

[6] = system: Enterococcus faecalis NCTC 12201; experiment: Antibacterial MIC (ISO 20776-1); assay type: cell-based; conditions: NCTC12201; Enterococcus faecalis NCTC 12201, Vancomycin resistance, vanA
Text: as §1, §2

[7] = system: Haemophilus influenzae 17428; experiment: Antibacterial MIC (ISO 20776-1); assay type: cell-based; conditions: Haemophilus influenzae 17428, Ampicillin resistance, PBP
Text: as §1, §2

[8] = system: Haemophilus influenzae 18391; experiment: Antibacterial MIC (ISO 20776-1); assay type: cell-based; conditions: Haemophilus influenzae 18391, AMP/COA resistance, PBP/β-lactamase
Text: as §1, §2

[9] = system: Haemophilus influenzae ATCC 49766; experiment: Antibacterial MIC (ISO 20776-1); assay type: cell-based; conditions: ATCC49766
Text: as §1, §2

[10] = system: Staphylococcus aureus 11051; experiment: Antibacterial MIC (ISO 20776-1); assay type: cell-based; conditions: Staphylococcus aureus, 11051
Text: as §1, §2

[11] = system: Staphylococcus aureus ATCC 700698; experiment: Antibacterial MIC (ISO 20776-1); assay type: cell-based; conditions: ATCC700698; Staphylococcus aureus ATCC 700698, Vancomycin resistance, hVISA; read-out: MIC
Text: as §1, §2

[12] = system: Staphylococcus aureus ATCC BAA-977; experiment: Antibacterial MIC (ISO 20776-1); assay type: cell-based; conditions: Staphylococcus aureus, ATCCBAA977
Text: as §1, §2

[13] = system: Staphylococcus aureus NCTC 12493; experiment: Antibacterial MIC (ISO 20776-1); assay type: cell-based; conditions: Staphylococcus aureus, NCTC12493
Text: as §1, §2

[14] = system: Streptococcus pneumoniae 18778; experiment: Antibacterial MIC (ISO 20776-1); assay type: cell-based; conditions: Streptococcus pneumoniae, 18778
Text: as §1, §2

[15] = system: Streptococcus pneumoniae 21394; experiment: Antibacterial MIC (ISO 20776-1); assay type: cell-based; conditions: Streptococcus pneumoniae, 21394
Text: as §1, §2

[16] = system: Streptococcus pneumoniae 21395; experiment: Antibacterial MIC (ISO 20776-1); assay type: cell-based; conditions: Streptococcus pneumoniae, 21395
Text: as §1, §2

[17] = system: Streptococcus pneumoniae ATCC 49619; experiment: Antibacterial MIC (ISO 20776-1); assay type: cell-based; conditions: Streptococcus pneumoniae, ATCC49619
Text: as §1, §2

[18] = schistosomula, 72 hour culture, read-out: EC50 Motility
[19] = schistosomula, 72 hour culture, read-out: EC50 Phenotype
[20] = average of phenotype and motility, read-out: EC50 Schistosomula average

With `Cc1cccc(Nc2nc3ccc([N+](=O)[O-])cc3nc2Nc2cccc(C)c2)c1` [Compound 21] the “Selectivity Index Schistosomula” value (S. mansoni schistosomula) was 11, the EC50 (S. mansoni schistosomula; [18]) was 1.23 µM and the EC50 (S. mansoni schistosomula; [19]) was 1.62 µM. It also gave a CC50 at 24 h (MTT assay on HepG2 cells) of 15.6 µM.

With `c1ccc(/N=c2\sc3ccccc3s\c2=N/c2ccccc2)cc1` [Compound 20] the “Selectivity Index Schistosomula” value (S. mansoni schistosomula) was 3, the EC50 (S. mansoni schistosomula; [20]) was 4.41 µM and the EC50 (S. mansoni schistosomula; [18]) was 4.51 µM. For the same compound, the EC50 (S. mansoni schistosomula; [19]) was 4.31 µM and the CC50 at 24 h (MTT assay on HepG2 cells) was 13.8 µM.

With `O=C(Nc1ccc2nc(Nc3ccc(Cl)c(Cl)c3)c(Nc3ccc(Cl)c(Cl)c3)nc2c1)c1ccco1` [Compound 19, N-(2,3-bis((3,4-dichlorophenyl)amino)quinoxalin-6-yl)furan-2-carboxamide] the “Selectivity Index Schistosomula” value (S. mansoni schistosomula) was 8, the EC50 (S. mansoni schistosomula; [20]) was 1.94 µM and the EC50 (S. mansoni schistosomula; [18]) was 1.33 µM. The EC50 (S. mansoni schistosomula; [19]) was 2.54 µM, the “Motility (M) Mean score” value [1] was 3.36 and the “Phenotype (P) Mean score” value [1] was 3.40. It also gave an MIC90 (E. coli ATCC 25922) of over 125 µg/mL, an MIC90 (S. aureus ATCC 29213) of 31.2 µg/mL (≈ 55.9 µM) and an MIC90 [2] of over 125 µg/mL. The MIC90 (MRSA USA 300) was 62.5 µg/mL (≈ 112 µM), the MIC90 (MRSA ATCC 33591) was 15.6 µg/mL (≈ 27.9 µM) and the MIC90 (MRSA EM RSA) was 62.5 µg/mL (≈ 112 µM). It also gave an MIC90 [3] of over 125 µg/mL, an MIC90 (S. epidermidis NTCT11077) of 125 µg/mL (≈ 224 µM) and an MIC90 (B. cereus) of under 62.5 µg/mL. The MIC [4] was 4 µg/mL (≈ 7.15 µM), the MIC [5] was 2 µg/mL (≈ 3.58 µM) and the MIC [6] was 0.25 µg/mL (≈ 0.447 µM). For the same compound, the MIC [7] was 64 µg/mL (≈ 114 µM), the MIC [8] was 64 µg/mL (≈ 114 µM) and the MIC [9] was 64 µg/mL (≈ 114 µM). It also gave an MIC [10] of 8 µg/mL (≈ 14.3 µM), an MIC [11] of 8 µg/mL (≈ 14.3 µM) and an MIC [12] of 8 µg/mL (≈ 14.3 µM). It also gave an MIC [13] of 1 µg/mL (≈ 1.79 µM), an MIC [14] of 8 µg/mL (≈ 14.3 µM) and an MIC [15] of 8 µg/mL (≈ 14.3 µM). For the same compound, the MIC [16] was 8 µg/mL (≈ 14.3 µM) and the MIC [17] was 8 µg/mL (≈ 14.3 µM).

Source: patent US12503448B2, “Antibacterial and antiparasitic quinoxaline-2,3-diamine derivatives” (University College Cardiff Consultants Limited, priority 2019, dated 2025)
